In one experiment the target is AChE (Homo sapiens, UniProt P22303). In words: biochemical. The note with it: for IC50: read-out: IC50 AChE. As for the experimental part: (§1) Acetylthiocholine iodide/butyrylthiocholine iodide (AChI)/BChI) and 5,5′-dithiobis(2-nitro-benzoic acid) (DTNB) were used as the substrate pattern for both cholinergic reactions. […] Then, the samples were incubated at 25 °C for 15 min, and 50 μL of DTNB solution (0.5 mM,) was transferred.

The next experiment addresses BChE (Homo sapiens, UniProt P06276). Nature of the experiment: biochemical. The following applies: read-out: IC50 BChE. The protocol:
as §1

Experiment [1] is described as follows: ABTS radical cation scavenging. As for the experimental part: The ABTS radical cation scavenging assay was used as a way to calculate antioxidant capacity based on this radical scavenging ability. Firstly, an aqueous solution of ABTS (7.0 mM) was oxidized by oxidants such as K2S2O8 (2.5 mM) for the production of its radical cation (ABTS^•+). […] Then, 1 mL of ABTS^•+ solution was added to 3 mL Schiff base (10–15) and hydrazineylidene derivative (16 and 17) solutions at different concentrations (10–30 μg/mL).

A short description of experiment [2]: Cu2+ reducing ability (neocuproine method, absorbance 450 nm). The following applies: 30 µg/mL; absorbance at 450 nm. As for the experimental part:
The Cu^2+ reducing ability of Schiff bases (10–15) and hydrazineylidene derivatives (16 and 17) were detected according to a prior study. For this purpose, 0.25 mL of CuCl2 solution (10 mM), 0.25 mL of ethanolic neocuproine solution (7.5 × 10^−3 M), and 250 μL of NH4Ac buffer solution (1.0 M) in different concentrations (10–30 μg/mL) were transferred to test tubes containing Schiff base (10–15) and hydrazineylidene derivative (16 and 17) samples. The total volume was made up to 2 mL with distilled water, and their absorbance values were recorded at 450 nm after 30 min of incubation.

Experiment [3] in a line: Fe3+ reducing ability (ferricyanide method, absorbance 700 nm). The following applies: 30 µg/mL; absorbance at 700 nm. As for the experimental part:
The Fe^3+ reducing ability of Schiff bases (10–15) and hydrazineylidene derivatives (16 and 17) were tested according to our prior studies. For this purpose, various concentrations of compounds (10–17) were transferred into test tubes, and 2.5 mL of phosphate buffer (0.2 M, pH 6.6) and 2.5 mL (1%) of potassium ferricyanide [K3Fe(CN)6] solutions were added. Then, the mixture was vortexed and incubated at 50 °C for 20 min. A portion of trichloroacetic acid (2.5 mL, 10%) was added. Then, 2.5 mL of upper layers of the solutions were mixed with 2.5 mL distilled water and 0.5 mL FeCl3 (0.1%). The absorbance values of the reducing effects of compounds (10–17) and standards were spectrophotometrically recorded at 700 nm.

Experiment [4] addresses T1, hCA I (Homo sapiens, UniProt P00915).
Text: (§2) Both isoforms’ activity was spectrophotometrically determined according to the Verpoorte assay [47]. […] All experiments of the CA inhibition assay were repeated three times and the results are given as the arithmetic mean of these repetitions.
In experiment [5] the target is T1, hCA I. In words: biochemical.
Text: as §2
The nature of experiment [6]: DPPH radical scavenging (Blois method). The note with it: half maximal scavenging concentration. The protocol: DPPH· and ABTS^•+ scavenging methods are the most widely used spectrophotometric methods to determine the antioxidant capacity of newly synthesized compounds. The DPPH‧ scavenging effect of Schiff bases (10–15) and hydrazineylidene derivatives (16 and 17) was realized according to the Blois method. Briefly, 1 mL of DPPH^• solution (0.1 mM), which was prepared in ethanol and was a violet/purple color […], was added to the Schiff base (10–15) and hydrazineylidene derivative (16 and 17) samples at different concentrations (10–30 μg/mL). Then, they were incubated at room temperature for 30 min and their absorbance values were recorded at 517 nm.

Experiment [7] is described as follows: Fe3+-TPTZ complex reducing ability (absorbance 593 nm). The note with it: 30 µg/mL; absorbance at 593 nm. As for the experimental part:
The Fe^3+-TPTZ complex reducing ability of Schiff bases (10–15) and hydrazineylidene derivatives (16 and 17) was realized according to a previous study. For this, 2.25 mL of TPTZ solution (10 mM in 40 mM HCl) was freshly prepared, then added to 2.5 mL of acetate buffer (0.3 M, pH 3.6) and 2.25 mL of FeCl3 solution (20 mM). Then, different concentrations of Schiff bases (10–15) and hydrazineylidene derivatives (16 and 17) were transferred and incubated at 37 °C for 30 min. Finally, the absorbance values of the reducing power of Schiff bases (10–15) and hydrazineylidene derivatives (16 and 17) and standards were spectrophotometrically measured at 593 nm.

For the next experiment, the target named is hCA II (Homo sapiens, UniProt P00918). Nature of the experiment: hCA II inhibition, esterase assay (Verpoorte). It counts as biochemical. The following applies: read-out: IC50 hCA II.

The structures appear in SMILES notation. Values joined by “and” are separate entries in the source; they are usually repeats but may differ in a detail not shown here. Identical values can stand only once.

The values below come from article PMC10051454, “Synthesis of Schiff Bases Containing Phenol Rings and Investigation of Their Antioxidant Capacity, Anticholinesterase, Butyrylcholinesterase, and Carbonic Anhydrase Inhibition Properties” (Pharmaceutics, 2023).

Chain of AChE (P22303 32-614): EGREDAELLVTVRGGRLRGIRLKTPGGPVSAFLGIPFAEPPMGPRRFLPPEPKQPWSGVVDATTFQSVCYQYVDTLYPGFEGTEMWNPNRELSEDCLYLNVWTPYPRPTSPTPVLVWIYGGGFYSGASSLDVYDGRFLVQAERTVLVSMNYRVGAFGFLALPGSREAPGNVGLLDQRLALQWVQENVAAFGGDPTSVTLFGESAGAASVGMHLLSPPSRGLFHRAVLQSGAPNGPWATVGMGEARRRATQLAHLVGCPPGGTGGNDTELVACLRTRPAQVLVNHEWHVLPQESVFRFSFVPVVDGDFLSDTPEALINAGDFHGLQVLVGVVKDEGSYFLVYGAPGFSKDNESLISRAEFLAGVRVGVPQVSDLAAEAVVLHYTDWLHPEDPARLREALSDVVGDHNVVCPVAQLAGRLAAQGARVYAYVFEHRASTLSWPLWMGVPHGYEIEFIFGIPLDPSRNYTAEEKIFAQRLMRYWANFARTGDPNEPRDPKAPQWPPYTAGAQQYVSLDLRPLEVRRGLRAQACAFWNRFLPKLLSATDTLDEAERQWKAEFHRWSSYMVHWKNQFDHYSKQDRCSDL
T1 sequence (P00915 whole entry): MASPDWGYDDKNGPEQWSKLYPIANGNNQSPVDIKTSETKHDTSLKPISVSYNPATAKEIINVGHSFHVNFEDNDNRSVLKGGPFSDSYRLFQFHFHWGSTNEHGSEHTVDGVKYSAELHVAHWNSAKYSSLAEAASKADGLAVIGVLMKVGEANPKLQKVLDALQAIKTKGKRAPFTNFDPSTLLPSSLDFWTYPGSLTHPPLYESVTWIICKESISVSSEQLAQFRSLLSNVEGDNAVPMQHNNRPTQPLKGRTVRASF
Chain of BChE (P06276 29-602): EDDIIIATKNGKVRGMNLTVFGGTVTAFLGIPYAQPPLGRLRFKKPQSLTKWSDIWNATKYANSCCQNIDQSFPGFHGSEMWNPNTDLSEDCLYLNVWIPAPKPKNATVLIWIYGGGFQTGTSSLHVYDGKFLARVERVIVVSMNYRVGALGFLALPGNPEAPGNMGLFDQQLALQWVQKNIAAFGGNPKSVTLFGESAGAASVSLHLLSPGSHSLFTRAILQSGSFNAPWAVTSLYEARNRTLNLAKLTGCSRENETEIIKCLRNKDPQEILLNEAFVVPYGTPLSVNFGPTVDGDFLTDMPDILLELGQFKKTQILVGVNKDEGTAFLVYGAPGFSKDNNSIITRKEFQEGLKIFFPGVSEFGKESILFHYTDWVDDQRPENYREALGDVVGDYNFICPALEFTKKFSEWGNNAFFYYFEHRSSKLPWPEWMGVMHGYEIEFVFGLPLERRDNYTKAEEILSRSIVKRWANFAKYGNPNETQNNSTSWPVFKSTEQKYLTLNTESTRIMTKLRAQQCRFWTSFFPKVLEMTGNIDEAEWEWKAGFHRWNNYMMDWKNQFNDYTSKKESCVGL
Text for hCA II: as §2

Take `COc1ccc(/C=N/N=C(c2ccccc2)c2ccccc2)cc1O` [Compound 16, (E)-5-(((Diphenylmethylene)hydrazineylidene)methyl)-2-methoxyphenol]: the “Selectivity Index (AChE/BChE)” value on AChE turned out to be 0.627. The IC50 was found to be 16.1 nM at AChE, 25.7 nM on BChE, 69.3 nM against hCA I [5] and 112 nM on hCA II. Besides, the “ABTS^•+ Scavenging IC50” value in experiment [1] is 11.745 µg/mL and 11.74 µg/mL. Moreover, in experiment [2], the “Cu^2+ Reducing λ450” value was determined as 1.266 ± 0.029 absorbance. For the same molecule, the “Fe^3+ Reducing λ700” value in experiment [3] is given as 0.311 ± 0.018 absorbance. Moreover, at hCA I [4], the “Selectivity Index (hCA I/hCA II)” value came to 0.326. Moreover, the “DPPH^• Scavenging IC50” value in experiment [6] stood at 30.13 µg/mL. For the same molecule, the “Fe^3+-TPTZ Reducing λ593” value in experiment [7] was determined as 1.069 ± 0.057 absorbance.
Take `COc1ccc(/C=N/Nc2ccccc2)cc1O` [Compound 17, (E)-2-Methoxy-5-((2-phenylhydrazineylidene)methyl)phenol]: the “Selectivity Index (AChE/BChE)” value on AChE is 1.206. Also, the IC50 worked out at 23.9 nM at AChE, 19.8 nM at BChE, 96.2 nM against hCA I [5] and 116 nM on hCA II. Besides, in experiment [1], the “ABTS^•+ Scavenging IC50” value is 4.304 µg/mL and 4.30 µg/mL. Further, the “Cu^2+ Reducing λ450” value in experiment [2] is 2.026 ± 0.016 absorbance. Further, the “Fe^3+ Reducing λ700” value in experiment [3] was 2.391 ± 0.037 absorbance. The “Selectivity Index (hCA I/hCA II)” value on hCA I [4] was found to be 0.247. In addition, in [6], the “DPPH^• Scavenging IC50” value is 14.744 µg/mL and 14.74 µg/mL. Also, in [7], the “Fe^3+-TPTZ Reducing λ593” value is listed as 2.121 ± 0.014 absorbance.
